Tested on: HIV (LAV 1)
Assay: microbe, parasite or virus in culture
Description: Human T cell-derived, T4 antigen-positive CEM cells (provided by the Institut Pasteur, France) were used as host cells of HIV. Cell culture was carried out in a carbon dioxide-containing atmosphere in an incubator maintained at 37°C according to a conventional method [cf. […] The culture supernatant (5×10⁶ TCID₅₀/ml) obtained by subjecting CEM cells to HIV (LAV 1) infection and stored at -70°C was used as the HIV source.
The medium for cell culture (10 ml) placed in a plastic culture flask (25 cm²) was inoculated with CEM cells at a cell density of 2.5×10⁵ cells/ml. After 3 days of incubation, the culture was transferred to a 15-ml centrifuge tube and subjected to centrifugation at 1,000 revolutions per minute for 5 minutes for sedimentation of cells and removal of the culture medium.
The stock viral suspension was added to the host cells thus prepared to an MOI of 0.05 and the mixture was maintained at 37°C for 90 minutes with stirring at 30-minute intervals for viral adsorption. The medium was added to HIV-infected cells to a cell density of 5.0×10⁵ cells/ml to give an HIV-infected cell suspension.
A mixture (1.0 ml) of the three constituents mentioned below was added to each well of a 24-well plastic culture plate and the test substance final concentration was adjusted to 10 mcg/ml, 5 mcg/ml, 2.5 mcg/ml or 1 mcg/ml. The "no addition" wells (0 mcg/ml) served as controls.
After 4 days of incubation following viral infection, the cells in each well on the 24-well culture plate were suspended uniformly by pipetting and a 0.5-ml portion of the suspension was separated. A 2.0-ml portion of test substance-free fresh medium was added to the remaining 0.5-ml portion of the cell suspension, followed by incubation.
Seven days after viral infection, pipetting was performed to give a uniform cell suspension in each well and a 0.5-ml portion of the suspension was separated.
Incubation was continued and, 10 days after viral infection, a uniform cell suspension was produced in the same manner in each well and a 1.5-ml portion thereof was separated. A fresh 2.0-ml portion of the medium free of (or containing) the test substance was added to the well, followed by further incubation.
Fifteen days after viral infection, the cells in each well were suspended uniformly in the same manner in the medium and a 2.0-ml portion of the suspension was separated. A fresh 2.0-ml portion of the medium free of (or containing) the test substance was added to the remaining 0.5 ml of the cell suspension and incubation was continued.
Medium exchange was performed in the same manner 20 days and 25 days after viral infection.
The cell suspensions collected 4 days, 7 days, 10 days, 20 days and 30 days after viral infection were tested for viable cell count and viable cell percentage by trypan blue staining. At the same time, viral antigen-positive cell percentage determination was carried out by immunofluorescence using an anti-HIV antiserum isolated from a healthy carrier of HIV.
The numerical values given each is the mean for the respective two wells on the culture plate. The viable cell count is the total cell count minus the count of dead cells stained with trypan blue. The viable cell percentage is the percentage of viable cells among all the cells including dead cells. The viral antigen-positive cell percentage is the percentage of cells indicating antigen expression as found among all the cells including dead cells.

[1] = 1 mcg/ml, 4-day addition, after 4 days
[2] = 1 mcg/ml, 4-day addition, after 7 days
[3] = 1 mcg/ml, 4-day addition, after 10 days
[4] = 1 mcg/ml, 4-day addition, after 20 days
[5] = 1 mcg/ml, continuous addition, after 4 days
[6] = 1 mcg/ml, continuous addition, after 7 days
[7] = 1 mcg/ml, continuous addition, after 10 days
[8] = 2.5 mcg/ml, 4-day addition, after 4 days
[9] = 2.5 mcg/ml, 4-day addition, after 7 days
[10] = 2.5 mcg/ml, 4-day addition, after 10 days
[11] = 2.5 mcg/ml, 4-day addition, after 20 days
[12] = 2.5 mcg/ml, 4-day addition, after 30 days
[13] = 2.5 mcg/ml, continuous addition, after 4 days
[14] = 2.5 mcg/ml, continuous addition, after 7 days
[15] = 2.5 mcg/ml, continuous addition, after 10 days
[16] = 2.5 mcg/ml, continuous addition, after 20 days
[17] = 2.5 mcg/ml, continuous addition, after 30 days
[18] = 5 mcg/ml, 4-day addition, after 4 days
[19] = 5 mcg/ml, 4-day addition, after 7 days
[20] = 5 mcg/ml, 4-day addition, after 10 days
[21] = 5 mcg/ml, 4-day addition, after 20 days
[22] = 5 mcg/ml, 4-day addition, after 30 days
[23] = 5 mcg/ml, continuous addition, after 4 days
[24] = 5 mcg/ml, continuous addition, after 7 days
[25] = 5 mcg/ml, continuous addition, after 10 days
[26] = 5 mcg/ml, continuous addition, after 20 days
[27] = 5 mcg/ml, continuous addition, after 30 days
[28] = 10 mcg/ml, 4-day addition, after 4 days

## CC1COc2c(N3CCN(C)CC3)c(F)cc3c(=O)c(C(=O)O)cn1c23 (racemic) [OFLX, (±)-9-fluoro-3-methyl-10-(4-methyl-1-piperazinyl)-7-oxo-2,3-dihydro-7H-pyrido[1,2,3-de][1,4]benzoxazine-6-carboxylic acid]
[1]
  Viable cell count: 260 × 10⁴ cells/ml
  Viral antigen-positive cell percentage: 88%
[2]
  Viable cell count: 43 × 10⁴ cells/ml
  Viral antigen-positive cell percentage: 80%
[3]
  Viable cell count: 13 × 10⁴ cells/ml
  Viral antigen-positive cell percentage: 77%
[4]
  Viable cell count: 34 × 10⁴ cells/ml
  Viral antigen-positive cell percentage: 16%
1 mcg/ml, 4-day addition, after 30 days
  Viable cell count: 10 × 10⁴ cells/ml
[5]
  Viable cell count: 300 × 10⁴ cells/ml
  Viral antigen-positive cell percentage: 82%
[6]
  Viable cell count: 39 × 10⁴ cells/ml
  Viral antigen-positive cell percentage: 78%
[7]
  Viable cell count: 46 × 10⁴ cells/ml
  Viral antigen-positive cell percentage: 85%
1 mcg/ml, continuous addition, after 20 days
  Viable cell count: 15 × 10⁴ cells/ml
1 mcg/ml, continuous addition, after 30 days
  Viable cell count: 11 × 10⁴ cells/ml
[8]
  Viable cell count: 260 × 10⁴ cells/ml
  Viral antigen-positive cell percentage: 80%
[9]
  Viable cell count: 58 × 10⁴ cells/ml
  Viral antigen-positive cell percentage: 67%
[10]
  Viable cell count: 83 × 10⁴ cells/ml
  Viral antigen-positive cell percentage: 49%
[11]
  Viable cell count: 300 × 10⁴ cells/ml
  Viral antigen-positive cell percentage: 4%
[12]
  Viable cell count: 300 × 10⁴ cells/ml
  Viral antigen-positive cell percentage: 6%
[13]
  Viable cell count: 260 × 10⁴ cells/ml
  Viral antigen-positive cell percentage: 83%
[14]
  Viable cell count: 59 × 10⁴ cells/ml
  Viral antigen-positive cell percentage: 62%
[15]
  Viable cell count: 110 × 10⁴ cells/ml
  Viral antigen-positive cell percentage: 38%
[16]
  Viable cell count: 220 × 10⁴ cells/ml
  Viral antigen-positive cell percentage: 17%
[17]
  Viable cell count: 360 × 10⁴ cells/ml
  Viral antigen-positive cell percentage: 10%
[18]
  Viable cell count: 250 × 10⁴ cells/ml
  Viral antigen-positive cell percentage: 82%
[19]
  Viable cell count: 60 × 10⁴ cells/ml
  Viral antigen-positive cell percentage: 50%
[20]
  Viable cell count: 170 × 10⁴ cells/ml
  Viral antigen-positive cell percentage: 33%
[21]
  Viable cell count: 320 × 10⁴ cells/ml
  Viral antigen-positive cell percentage: 5%
[22]
  Viable cell count: 330 × 10⁴ cells/ml
  Viral antigen-positive cell percentage: 4%
[23]
  Viable cell count: 340 × 10⁴ cells/ml
  Viral antigen-positive cell percentage: 75%
[24]
  Viable cell count: 58 × 10⁴ cells/ml
  Viral antigen-positive cell percentage: 76%
[25]
  Viable cell count: 160 × 10⁴ cells/ml
  Viral antigen-positive cell percentage: 40%
[26]
  Viable cell count: 300 × 10⁴ cells/ml
  Viral antigen-positive cell percentage: 11%
[27]
  Viable cell count: 290 × 10⁴ cells/ml
  Viral antigen-positive cell percentage: 2%
[28]
  Viable cell count: 260 × 10⁴ cells/ml
  Viral antigen-positive cell percentage: 74%

From patent publication EP0394553A2, “Use of fluorine containing pyridone carboxylic acid derivatives for preparing a medicament for the treatment of HIV infections” (DAIICHI PHARMACEUTICAL CO., LTD., priority 1989, dated 1990)
